Assay results taken from patent US4695545A, “Culture and process for producing A41030 antibiotics” (Eli Lilly and Company, priority 1984, dated 1987).

Experiments:
[1] = Electrometric titration (pKa); format: physicochemical; details: electrometric titration in 66% dimethylformamide in water; stated as possible
Source text: Antibiotic A41030 factor A is a white, crystalline solid.

Solubility in solvents = format: physicochemical; details: qualitative
Source text: As many as seven antibiotic factors are recovered from the fermentation and are obtained as a mixture, the A41030 complex. It will be recognized that the ratio of the factors in the A41030 complex will vary, depending upon the fermentation conditions used. The individual factors A, B, C, D, E, F, and G are separated and isolated as individual compounds, as hereinafter described.

Clostridium difficile [2] = experiment: MIC anaerobic bacteria, agar-dilution; format: cell-based; details: Clostridium difficile 2994; agar-dilution (Table 9)
Clostridium perfringens = format: cell-based; details: Clostridium perfringens 81; agar-dilution
Clostridium septicum = experiment: MIC anaerobic bacteria, agar-dilution; format: cell-based; details: Clostridium septicum 1128
Eubacterium aerofaciens = experiment: MIC anaerobic bacteria, agar-dilution; format: cell-based; details: Eubacterium aerofaciens 1235
[3] = system: Peptococcus asaccharolyticus; experiment: MIC anaerobic bacteria, agar-dilution; format: cell-based; details: Peptococcus asaccharolyticus 1302
Peptococcus prevoti = experiment: MIC anaerobic bacteria, agar-dilution; format: cell-based; details: Peptococcus prevoti 1281
[4] = system: Peptostreptococcus anaerobius; experiment: MIC anaerobic bacteria, agar-dilution; format: cell-based; details: Peptostreptococcus anaerobius 1428
[5] = system: Peptostreptococcus intermedius; experiment: MIC anaerobic bacteria, agar-dilution; format: cell-based; details: Peptostreptococcus intermedius 1264
Propionibacterium acnes = experiment: MIC anaerobic bacteria, agar-dilution; format: cell-based; details: Propionibacterium acnes 79; agar-dilution (Table 9)
Bacteroides fragilis = experiment: MIC anaerobic bacteria, agar-dilution; format: cell-based
[6] = system: Bacteroides thetaiotaomicron; experiment: MIC anaerobic bacteria, agar-dilution; format: cell-based; details: Bacteroides thetaiotaomicron 1438
[7] = system: Bacteroides melaninogenicus; experiment: MIC anaerobic bacteria, agar-dilution; format: cell-based
Bacteroides vulgatis = experiment: MIC anaerobic bacteria, agar-dilution; format: cell-based; details: Bacteroides vulgatis 1211
Bacteroides corrodens = experiment: MIC anaerobic bacteria, agar-dilution; format: cell-based; details: Bacteroides corrodens 1874
Fusobacterium symbiosum = experiment: MIC anaerobic bacteria, agar-dilution; format: cell-based; details: Fusobacterium symbiosum 1470
[8] = system: Fusobacterium necrophorum; experiment: MIC anaerobic bacteria, agar-dilution; format: cell-based; details: Fusobacterium necrophorum 6054A
Clostridium difficile [9] = experiment: MIC against Clostridium difficile strains, agar-dilution; format: cell-based
Source text: The A41030 antibiotic factors A, B, C, D, E, F, and G, are also active against a number of strains of Clostridium difficile, as determined by the agardilution method.

Staphylococcus aureus = experiment: MIC aerobic bacteria, standard agar-dilution assay; format: cell-based; details: Staphylococcus aureus S13E; agar-dilution, 24 hours
[10] = system: Staphylococcus epidermidis; experiment: MIC aerobic bacteria, standard agar-dilution assay; format: cell-based
Streptococcus pyogenes = experiment: MIC aerobic bacteria, standard agar-dilution assay; format: cell-based; details: Streptococcus pyogenes C203, 24 hours
Streptococcus pneumoniae = experiment: MIC aerobic bacteria, standard agar-dilution assay; format: cell-based; details: Streptococcus pneumoniae Park I, 24 hours
[11] = system: Streptococcus sp. Group D; experiment: MIC aerobic bacteria, standard agar-dilution assay; format: cell-based
Haemophilus influenzae = experiment: MIC aerobic bacteria, standard agar-dilution assay; format: cell-based
Escherichia coli = experiment: MIC aerobic bacteria, standard agar-dilution assay; format: cell-based; details: Escherichia coli TEM, 24 hours
[12] = Bacteroides melaninogenicus 2736
[13] = Staphylococcus epidermidis EPI1, 24 hours
[14] = Streptococcus sp. Group D 9960, 24 hours
[15] = Streptococcus sp. Group D X66, 24 hours
[16] = Haemophilus influenzae 76, 24 hours
[17] = Haemophilus influenzae C.L., 24 hours

A41030 factor F
possibly additional pKa's [1]: > 10 | solubility (solvents) (Solubility in solvents): soluble in the same solvents as factor A | MIC (Clostridium difficile [2]): 1.0 µg/mL | MIC (Clostridium perfringens): 1.0 µg/mL | MIC (Clostridium septicum): 1.0 µg/mL | MIC (Eubacterium aerofaciens): 1.0 µg/mL | MIC [3]: ≤ 0.25 µg/mL | MIC (Peptococcus prevoti): 32 µg/mL | MIC [4]: 32 µg/mL | MIC [5]: 1.0 µg/mL | MIC (Propionibacterium acnes): 1.0 µg/mL | MIC (Bacteroides fragilis; Bacteroides fragilis 111): 32 µg/mL | MIC (Bacteroides fragilis; Bacteroides fragilis 1877): 32 µg/mL | MIC (Bacteroides fragilis; Bacteroides fragilis 1936B): 32 µg/mL | MIC [6]: 64 µg/mL | MIC [7, 12]: 1.0 µg/mL | MIC (Bacteroides vulgatis): 32 µg/mL | MIC (Bacteroides corrodens): 32 µg/mL | MIC (Fusobacterium symbiosum): 1.0 µg/mL | MIC [8]: 1.0 µg/mL | MIC (Clostridium difficile [9]; Clostridium difficile 78): 1.0 µg/mL | MIC (Clostridium difficile [9]; Clostridium difficile 107B): 1.0 µg/mL | MIC (Clostridium difficile [9]; Clostridium difficile 111F): 2 µg/mL | MIC (Clostridium difficile [9]; Clostridium difficile 1153): 2 µg/mL | MIC (Clostridium difficile [9]; Clostridium difficile 2634): 2 µg/mL | MIC (Clostridium difficile [9]; Clostridium difficile 3424-5B): 1.0 µg/mL | MIC (Clostridium difficile [9]; Clostridium difficile 3816): 1.0 µg/mL | MIC (Clostridium difficile [9]; Clostridium difficile 3950D): 1.0 µg/mL | MIC (Clostridium difficile [9]; Clostridium difficile 6890): 1.0 µg/mL | MIC (Clostridium difficile [9]; Clostridium difficile 8484): 1.0 µg/mL | MIC (Clostridium difficile [9]; Clostridium difficile A-194): 1.0 µg/mL | MIC (Clostridium difficile [9]; Clostridium difficile A-195): 1.0 µg/mL | MIC (Clostridium difficile [9]; Clostridium difficile A-196): 2 µg/mL | MIC (Clostridium difficile [9]; Clostridium difficile A-279): 1.0 µg/mL | MIC (Clostridium difficile [9]; Clostridium difficile A-280): 1.0 µg/mL | MIC (Clostridium difficile [9]; Clostridium difficile A-281): 2 µg/mL | MIC (Clostridium difficile [9]; Clostridium difficile WAL-2112): 1.0 µg/mL | MIC (Clostridium difficile [9]; Clostridium difficile WAL-3657): 1.0 µg/mL | MIC (Clostridium difficile [9]; Clostridium difficile WAL-4268): 1.0 µg/mL | MIC (Staphylococcus aureus): 1 µg/mL | MIC [10, 13]: 0.25 µg/mL | MIC (Streptococcus pyogenes): 2 µg/mL | MIC (Streptococcus pneumoniae): 2 µg/mL | MIC [11, 14]: 4 µg/mL | MIC [11, 15]: 4 µg/mL | MIC (Haemophilus influenzae; [16]): 32 µg/mL | MIC (Haemophilus influenzae; [17]): 32 µg/mL

A41030 factor D
possibly additional pKa's [1]: > 10 | solubility (solvents) (Solubility in solvents): soluble in the same solvents as factor A | MIC (Clostridium difficile [2]): 0.5 µg/mL | MIC (Clostridium perfringens): 0.5 µg/mL | MIC (Clostridium septicum): 0.25 µg/mL | MIC (Eubacterium aerofaciens): 0.5 µg/mL | MIC (Peptococcus prevoti): 0.25 µg/mL | MIC [4]: 0.5 µg/mL | MIC [5]: 1.0 µg/mL | MIC (Propionibacterium acnes): 0.25 µg/mL | MIC (Bacteroides fragilis; Bacteroides fragilis 111): 32 µg/mL | MIC (Bacteroides fragilis; Bacteroides fragilis 1877): 32 µg/mL | MIC (Bacteroides fragilis; Bacteroides fragilis 1936B): 32 µg/mL | MIC [6]: 32 µg/mL | MIC ([7]; Bacteroides melaninogenicus 1856/28): > 64 µg/mL | MIC [7, 12]: 0.5 µg/mL | MIC (Bacteroides vulgatis): 32 µg/mL | MIC (Bacteroides corrodens): 32 µg/mL | MIC (Fusobacterium symbiosum): 0.5 µg/mL | MIC (Clostridium difficile [9]; Clostridium difficile 78): ≤ 0.25 µg/mL | MIC (Clostridium difficile [9]; Clostridium difficile 107B): ≤ 0.25 µg/mL | MIC (Clostridium difficile [9]; Clostridium difficile 111F): ≤ 0.25 µg/mL | MIC (Clostridium difficile [9]; Clostridium difficile 1153): 1.0 µg/mL | MIC (Clostridium difficile [9]; Clostridium difficile 2634): 0.5 µg/mL | MIC (Clostridium difficile [9]; Clostridium difficile 3424-5B): 0.5 µg/mL | MIC (Clostridium difficile [9]; Clostridium difficile 3816): 0.5 µg/mL | MIC (Clostridium difficile [9]; Clostridium difficile 3950D): 0.5 µg/mL | MIC (Clostridium difficile [9]; Clostridium difficile 6890): 0.5 µg/mL | MIC (Clostridium difficile [9]; Clostridium difficile 8484): ≤ 0.25 µg/mL | MIC (Clostridium difficile [9]; Clostridium difficile A-194): ≤ 0.25 µg/mL | MIC (Clostridium difficile [9]; Clostridium difficile A-195): ≤ 0.25 µg/mL | MIC (Clostridium difficile [9]; Clostridium difficile A-196): 0.5 µg/mL | MIC (Clostridium difficile [9]; Clostridium difficile A-279): ≤ 0.25 µg/mL | MIC (Clostridium difficile [9]; Clostridium difficile A-280): ≤ 0.25 µg/mL | MIC (Clostridium difficile [9]; Clostridium difficile A-281): 0.5 µg/mL | MIC (Clostridium difficile [9]; Clostridium difficile WAL-2112): ≤ 0.25 µg/mL | MIC (Clostridium difficile [9]; Clostridium difficile WAL-3657): ≤ 0.25 µg/mL | MIC (Clostridium difficile [9]; Clostridium difficile WAL-4268): ≤ 0.25 µg/mL | MIC (Staphylococcus aureus): 0.25 µg/mL | MIC [10, 13]: 0.25 µg/mL | MIC ([10]; Staphylococcus epidermidis EPI2, 24 hours): 1 µg/mL | MIC (Streptococcus pyogenes): 0.5 µg/mL | MIC (Streptococcus pneumoniae): 0.5 µg/mL | MIC [11, 14]: 1 µg/mL | MIC [11, 15]: 1 µg/mL | MIC (Haemophilus influenzae; [16]): 8 µg/mL | MIC (Haemophilus influenzae; [17]): 8 µg/mL | MIC (Escherichia coli): 64 µg/mL
